Patent publication US5725842A, “Method of administering amiloride” (priority 1996, dated 1998)
Counter-ions that a name gives are not always drawn.

Key:
[1] = Timed release (dissolution) of respirable solid amiloride particles in Krebs-Ringer solution approximating plasma, assayed as bioactive amiloride; format: physicochemical; details: amiloride hydrochloride particles ~1 μm; aqueous solution approximating ionic strength of plasma
Source text: (§1) Freshly excised human cystic fibrosis airway […] used to assay bioactive amiloride in solution. Freshly excised tissues is obtained from the Operating Room at The University of North Carolina Hospitals as previously described. R. Boucher, M. Stutts, M. Knowles, L. Cantley, and J. Gatzy, Na+ transport in cystic fibrosis respiratory epithelia. Abnormal basal rate and response to adenylate cyclase activation. J. Clin. Invest. 78, 1245-1252 (1986). The tissue preparation is mounted in a minature Ussing chamber that has 6 ml of solution bathing each (mucosal; basolateral) surface of the preparation. The solution is a Krebs-Ringer bicarbonate solution which approximates the ionic composition of plasma. This solution is warmed (37°) and circulated with a gas lift (95% oxygen, 5% CO2) system. Mixing time in this chamber has been previously measured by calibration with dyes (blue dextran) and is five seconds or less. The measurement of sodium transport rates is performed using a voltage clamp that is interfaced to the tissue preparation by pairs of potential sensing electrodes and current passing electrodes. The current required to null the transepithelial potential difference to zero is the short circuit current, which in human airway tissue is an accurate index of sodium transport rates. See R. Boucher et al., supra.

[2] = test system: human cystic fibrosis airway epithilia; assay: Inhibition of Na+ transport (short circuit current, ISC) by amiloride hydrochloride dry powder in minature Ussing chamber; format: cell-based
Source text: as §1, with “supra. […] This experiment was conducted as described above. […]” for “supra.”

[3] = in vivo, po; cited from earlier work
[4] = liquid aerosol, cystic fibrosis; cited from earlier work
[5] = in vivo
airway epithelia = details: applied to luminal membrane; cited from earlier work
[6] = Size distribution of amiloride aerosol (Andersen impactor); format: physicochemical; details: MDI with spacer, 60 Lpm
Procedure: In each test, the MDI aerosol was dispersed into the spacer via a 50 μl metering valve designed to deliver 1 mg amiloride per puff; however, the actual delivery was closer to 3 mg/puff as determined by spectrophotometric analysis of all amiloride collected as discussed below.
After each experiment, the apparatus was disassembled and each component washed individually with 50 ml of distilled water to remove amiloride and lactose particles.

Structure (SMILES)	timed release effect of respirable solid particles [1]	inhibition of ISC ([2]; about 1 μm, at about sixty minutes)	time to complete inhibition of ISC ([2]; particle size about 1 μm, Krebs-Ringer bicarbonate, 37°)	effective concentration in the airway lumen [3]	clinical benefit [4]	maximum systemic dose [5] [mg daily]	inhibition of Na+ and water absorption (airway epithelia)	mass median diameter (mmd) [6]
N=C(N)NC(=O)c1nc(Cl)c(N)nc1N [amiloride hydrochloride]	dissolved slowly over time	Complete Inhibition	about sixty	–	–	–	–	–
N=C(N)NC(=O)c1nc(Cl)c(N)nc1N [amiloride]	–	–	–	cannot be achieved	clinical benefit	20	inhibit	about 6 um
